Measurements as given in patent US8163788B2, “Low-molecular inhibitors of cytohesin-family guanine nucleotide exchange factors” (Rheinische Friedrich-Wilhelms Universitat Bonn, priority 2004, dated 2012).

Tests used:
Assay type in all cases: cell-based
human dendritic cells [1] = assay: migration (chemotaxis) of dendritic cells in modified Boyden chambers on ICAM-1; details: 1 μM, 10 μM or 15 μM, 96 hours; chemokines CCL19 or CXCL12; FIG. 5
Method: (§1) Dendritic cells were produced in vitro by means of differentiation factors (IL-4 and GM-CSF) from blood monocytes that were isolated from peripheral mononuclear cells (PBMC) by Ficoll density gradient centrifugation from the human blood of anonymous donors.
The blood was mixed at a ratio of 1:1 with PBS (KCl 0.2 g/l, KH2PO4 0.2 g/l, NaCl 8 g/l, Na2HPO4 1.15 g/l, PAA, Cölbe)/2 mM EDTA and layered onto half the volume of Ficoll. Centrifugation was carried out at 300×g, 30 minutes with no brake. After the centrifugation, a centered white band appeared which contained the PBMC. This was picked up with PBS/2 mM EDTA, filled up to 50 ml and subjected to several washing steps at 640×g, 500×g, 400×g, 300×g and 200×g. Subsequently, the cells were picked up in a titer of 5×10^6/ml in “VLE-RPMI+/+”-medium (Biochrom, Berlin, containing 10% fetal calf serum (FCS) and 1% penicillin/streptomycin) and incubated for 90 minutes in an incubator at 37° C. [98.6° F.] and 5% CO2. During this time, the monocytes adhere to the bottom of the culture dish. […]
(§2) The quantitative analysis of the cell migration was carried out in modified Boyden chambers consisting of a 24-hole plate into which the Transwell® filters with a 5 μm pore size had been placed. […] [98.6° F.] and 5% CO2 in the incubator and subsequently, the number of cells that had migrated into the lower chamber in the direction of the chemokine was determined. […]

human dendritic cells [2] = assay: adhesion of dendritic cells to the substrate ICAM-1; details: 1 μM, 10 μM or 15 μM, 96 hours; stimulation with PMA or MEM-48; FIG. 4
Method: as §1
The blood was mixed at a ratio of 1:1 with PBS (KCl 0.2 g/l, KH2PO4 0.2 g/l, NaCl 8 g/l, Na2HPO4 1.15 g/l, PAA, Cölbe)/2 mM EDTA and layered onto half the volume of Ficoll. Centrifugation was carried out at 300×g, 30 minutes with no brake. After the centrifugation, a centered white band appeared which contained the PBMC. This was picked up with PBS/2 mM EDTA, filled up to 50 ml and subjected to several washing steps at 640×g, 500×g, 400×g, 300×g and 200×g. […]
as §2
Under corresponding conditions, the adhesion was determined after stimulation with phorbolester (PMA, 50 ng/ml, Sigma, Taufkirchen) or anti-beta-2 integrin antibodies MEM-48 (5 μg/ml, Vaclav Horeijsi, Czech Academy of Sciences Prague). […]

[3] = system: human peripheral blood cells (PBL); assay: adhesion of human peripheral blood cells (PBL) to ICAM-1 after stimulation with OKT3 or PMA; details: FIG. 1
From the text: Human peripheral blood cells (PBL) were stimulated with agonists that activate a beta-2 integrin-dependent adhesion. In these primary human lymphocytes, the beta-2 integrin-dependent adhesion can be activated by cytohesins at the specific ligands ICAM-1.
The agonists employed were the monoclonal antibody OKT3 (hybridome of ATCC, mAb OKT3 purified on protein A, according to standard methods from Current Protocols in Immunology, 5th Ed., Coligan et al., Edts, Wiley 2004) against the CD3 complex, a T-cell receptor and phorbolester (PMA), which non-physiologically activates intracellular signal cascades in human PBL including integrin-dependent adhesion while circumventing cytohesins.
Cells from human blood were isolated according to standard methods (Current Protocols in Immunology, 5th Ed., 2004, Coligan et al., Edts, Wiley). Cell culture dishes coated with ICAM-1 were produced by means of recombinant ICAM-1-Fc fusion protein (Kolanus, W. et al., Cell 86, 233-42 (1996), Geiger, C. et al., EMBO J., 19, 2525-2536 (2000)). 300,000 human peripheral blood cells (PBL) were stimulated for 30 minutes with 2 μg/ml of OKT3 or 40 ng/ml of phorbolester (PMA) in Hank's BSS, (Gibco; composition (g/l): CaCl2x2H2O (0.185), KCl (0.4), KH2PO4 (0.06), MgCl2x6H2O (0.1), MgSO4x7H2O (0.1), NaCl (8.0), NaHCO3 (0.35), Na2HPO4 (0.048), D-glucose (1.0)), and placed for one hour in Hank's BSS onto the ICAM-1 coated cell culture dishes, whereby the agonists were not removed. Non-bound cells were removed by washing with Hank's BSS. The percentage of bound cells was determined by counting under a microscope using a standard counting grid.

COc1nc(-c2ccc3c(c2)OCO3)n(-c2ccc(NC(=O)CSc3ccccc3)cc2)n1 [Compound 9]
inhibition of the migration of dendritic cells on the substrate ICAM-1 (human dendritic cells [1]): concentration-dependent inhibition
inhibition of the adhesion of dendritic cells on the substrate ICAM-1 (human dendritic cells [2]): concentration-dependent inhibition
IC50 ([3]; Homo sapiens, cells stimulated with OKT3, units given within the value, read-out: IC50 of inhibition of adhesion of PBL to ICAM-1): 500 to 1000 nM
effect on adhesion of PBL to ICAM-1 ([3]; cells activated by phorbolester (PMA)): not influenced
